# Results taken from publication PMC4970648, “Studies on 16α-Hydroxylation of Steroid Molecules and Regioselective Binding Mode in Homology-Modeled Cytochrome P450-2C11” (International Journal of Medicinal Chemistry, 2010).
# Molecular target: [3H]PROG 16α-hydroxylating activity by male rat liver microsomes (CYP2C11) (Rattus norvegicus, UniProt P08683)
# Test: Inhibition of [3H]progesterone 16α-hydroxylation by adult male rat liver microsomes
# Conditions: 40% inhibition not reached at 10 μM of unlabeled steroid; male rat liver microsomes
# Protocol: Approximately 95-day-old male Wistar rats, castrated on the 70th day after birth, were used. The liver microsomes were prepared as previously described. The experiments were performed according to instrumental guidelines for the care and use of laboratory animals.
# The metabolism by rat liver microsomes were examined, according to our previously described procedure. Briefly, the microsomal suspension (400–600 μg of protein/2.2 mL, total volume of the reaction mixture) was preincubated with [3H]PROG (20 nM) under the absence or presence of an unlabeled steroid (0.01–10 μM) at 36°C for 30 min. […] After the incubation, two identical samples were mixed and extracted with toluene. The toluene-extractable [3H]PROG metabolites (more than 90%) were isolated by various paper chromatographic systems and then identified by recrysallization method. Other miscellaneous procedures are described in our previous papers.
# [3H]PROG 16α-hydroxylating activity by male rat liver microsomes (CYP2C11), sequence (P08683 whole entry): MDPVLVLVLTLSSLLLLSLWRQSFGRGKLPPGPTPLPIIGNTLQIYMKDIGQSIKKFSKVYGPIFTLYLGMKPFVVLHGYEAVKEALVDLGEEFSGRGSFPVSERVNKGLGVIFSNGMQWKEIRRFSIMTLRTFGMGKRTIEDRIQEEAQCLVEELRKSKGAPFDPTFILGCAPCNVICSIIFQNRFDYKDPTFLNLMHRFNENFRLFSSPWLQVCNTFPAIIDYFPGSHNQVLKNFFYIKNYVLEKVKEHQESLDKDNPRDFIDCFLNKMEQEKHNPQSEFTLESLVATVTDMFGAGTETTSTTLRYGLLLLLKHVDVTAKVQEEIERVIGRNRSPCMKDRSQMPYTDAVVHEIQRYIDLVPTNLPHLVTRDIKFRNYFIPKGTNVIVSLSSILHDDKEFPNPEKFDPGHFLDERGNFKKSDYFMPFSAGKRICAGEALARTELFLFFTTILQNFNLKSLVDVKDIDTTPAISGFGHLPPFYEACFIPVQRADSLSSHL
row,Compound,"[3H]PROG16α-hydroxylation (IC40), given as bound in μM"
1,3β-Pregnan-3-one [compound 37],>10 µM
2,"CC(=O)[C@H]1CC[C@H]2[C@@H]3C[C@@H](O)C4=CC(=O)CC[C@]4(C)[C@H]3CC[C@]12C [compound 3, 6β-Hydroxyprogesterone]",>10 μM^c
3,"CC(=O)[C@H]1CC[C@H]2[C@@H]3CCC4=CC(=O)CC[C@]4(C)[C@H]3[C@H](O)C[C@]12C [compound 5, 11α-Hydroxyprogesterone]",>10 µM
4,"CC(=O)O[C@@H]1C[C@]2(C)[C@@H](C(C)=O)CC[C@H]2[C@@H]2CCC3=CC(=O)CC[C@]3(C)[C@H]21 [compound 6, 11α-Acetoxyprogesterone]",>10 µM
5,"CC(=O)[C@H]1CC[C@H]2[C@@H]3CCC4=CC(=O)CC[C@]4(C)[C@H]3[C@@H](O)C[C@]12C [compound 7, 11β-Hydroxyprogesterone]",>10 µM
6,"CC(=O)[C@H]1[C@H](O)C[C@H]2[C@@H]3CCC4=CC(=O)CC[C@]4(C)[C@H]3CC[C@@]21C [compound 8, 16α-Hydroxyprogesterone]",>10 µM
7,"CC(=O)[C@H]1[C@H](C)C[C@H]2[C@@H]3CCC4=CC(=O)CC[C@]4(C)[C@H]3CC[C@@]21C [compound 9, 16α-Methylprogesterone]",>10 μM ^d
8,"CC(=O)[C@H]1CC[C@H]2[C@@H]3CCC4=CC(=O)CC[C@]4(C)[C@H]3CC[C@]12CO [compound 10, 18-Hydroxyprogesterone]",>10 µM
9,"CC(=O)[C@H]1CC[C@H]2[C@@H]3CCC4=CC(=O)CC[C@]4(CO)[C@H]3CC[C@]12C [compound 11, 19-Hydroxyprogesterone]",>10 µM
10,"CC(=O)[C@H]1CC[C@H]2[C@@H]3CCC4=CC(=O)CC[C@@H]4[C@H]3CC[C@]12C [compound 12, 19-Norprogesterone]",>10 µM
11,"C[C@H](O)[C@H]1CC[C@H]2[C@@H]3CCC4=CC(=O)CC[C@]4(C)[C@H]3CC[C@]12C [compound 13, 20α-Hydroxyprogesterone]",>10 µM
12,"C[C@]12CC[C@H]3[C@@H](CCC4=CC(=O)CC[C@@]43C)[C@@H]1CC[C@@H]2C(=O)CO [compound 14, 21-Hydroxyprogesterone]",>10 µM
13,"CC(=O)OCC(=O)C1CCC2C3CCC4=CC(=O)CCC4(C)C3CCC12C (stereo not shown) [compound 15, 21-Acetoxyprogesterone]",>10 µM
14,"C[C@]12C[C@H](O)[C@H]3[C@@H](CCC4=CC(=O)CC[C@@]43C)[C@@H]1CC[C@@H]2C(=O)CO [compound 16, Corticosterone]",>10 µM
15,"C[C@H](O)[C@H]1CC[C@H]2[C@@H]3CC=C4C[C@@H](O)CC[C@]4(C)[C@H]3CC[C@]12C [compound 21, 20α-Hydroxypregnenolone]",>10 µM
16,"C[C@]12CC[C@H]3[C@@H](CC=C4C[C@@H](O)CC[C@@]43C)[C@@H]1CC[C@@H]2C(=O)COS(=O)(=O)O [compound 24, 21-Sulfatepregnenolone]",>10 µM
17,"CC[C@H]1CC[C@H]2[C@@H]3CC=C4C[C@@H](O)CC[C@]4(C)[C@H]3CC[C@]12C [compound 25, 5-Pregnen-3β-ol]",>10 µM
18,"CC(C)CCC[C@@H](C)[C@H]1CC[C@H]2[C@@H]3CC=C4C[C@@H](O)CC[C@]4(C)[C@H]3CC[C@]12C [compound 26, Cholesterol]",>10 µM
19,"CC(=O)[C@H]1CC[C@H]2[C@@H]3CC[C@H]4C[C@H](OS(=O)(=O)O)CC[C@]4(C)[C@H]3CC[C@]12C [compound 31, 3α-Sulfate-5 α -pregnan-20-one]",>10 µM

# Same assay, conditions: IC40 of progesterone 1 relative to IC40 of 33
row,Compound,observed inhibitory potency index against [3H]PROG 16α-hydroxylation
1,"CC(=O)[C@H]1CC[C@H]2[C@@H]3CC[C@@H]4C[C@H](O)CC[C@]4(C)[C@H]3CC[C@]12C [compound 33, 3α-Hydroxy-5 β -pregnan-20-one]",31.46

# Same assay, conditions: molar concentration of unlabeled steroid causing 40% inhibition; [3H]PROG 20 nM; unlabeled steroid 0.01–10 μM; male rat liver microsomes
row,Compound,[3H]PROG16α-hydroxylation (IC40)
1,"CC(=O)[C@H]1CC[C@H]2[C@@H]3CCC4=CC(=O)CC[C@]4(C)[C@H]3CC[C@]12C [compound 1, Progesterone]",0.755 µM
2,"CC(=O)[C@H]1CC[C@H]2[C@@H]3CCC4=C[C@@H](O)CC[C@]4(C)[C@H]3CC[C@]12C [compound 2, 3β-Hydroxyprogesterone]",0.255 µM
3,"CC(=O)O[C@@H]1C[C@H]2[C@@H]3CC[C@H](C(C)=O)[C@@]3(C)CC[C@@H]2[C@@]2(C)CCC(=O)C=C12 [compound 4, 6β-Acetoxyprogesterone]",0.74 µM
4,"CC(=O)[C@H]1CC[C@H]2[C@@H]3CC=C4C[C@@H](O)CC[C@]4(C)[C@H]3CC[C@]12C [compound 17, Pregnenolone]",0.142 µM
5,"CC(=O)O[C@H]1CC[C@@]2(C)C(=CC[C@H]3[C@@H]4CC[C@H](C(C)=O)[C@@]4(C)CC[C@@H]32)C1 [compound 18, Pregnenolone-3-acetate]",0.8 µM
6,"CC(=O)C1CCC2C3CC=C4CC(OS(=O)(=O)O)CCC4(C)C3CCC12C (stereo not shown) [compound 19, Pregnenolone-3-sulfate]",0.195 µM
7,"C[C@]12CC[C@H]3[C@@H](CC=C4C[C@@H](O)CC[C@@]43C)[C@@H]1CC[C@@H]2C(=O)CO [compound 22, 21-Hydroxypregnenolone]",0.462 µM
8,"CC(=O)OCC(=O)[C@H]1CC[C@H]2[C@@H]3CC=C4C[C@@H](O)CC[C@]4(C)[C@H]3CC[C@]12C [compound 23, 21-Acetoxypregnenolone]",0.6 µM
9,"CC(=O)[C@H]1CC[C@H]2[C@@H]3CC[C@H]4CC(=O)CC[C@]4(C)[C@H]3CC[C@]12C [compound 27, 5α-Pregnan-3,20-dione]",0.72 µM
10,"CC(=O)[C@H]1CC[C@H]2[C@@H]3CC[C@@H]4CC(=O)CC[C@]4(C)[C@H]3CC[C@]12C [compound 28, 5β-Pregnan-3,20-dione]",0.395 µM
11,"CC(=O)[C@H]1CC[C@H]2[C@@H]3CC[C@H]4C[C@H](O)CC[C@]4(C)[C@H]3CC[C@]12C [compound 29, 3α-Hydroxy-5 α -pregnan-20-one]",0.062 µM
12,"CC(=O)O[C@@H]1CC[C@@]2(C)[C@@H](CC[C@@H]3[C@@H]2CC[C@]2(C)[C@@H](C(C)=O)CC[C@@H]32)C1 [compound 30, 3α-Acetoxy-5 α -pregnan-20-one]",0.41 µM
13,"CC(=O)[C@H]1CC[C@H]2[C@@H]3CC[C@H]4C[C@@H](O)CC[C@]4(C)[C@H]3CC[C@]12C [compound 32, 3β-Hydroxy-5 α -pregnan-20-one]",0.225 µM
14,"CC(=O)[C@H]1CC[C@H]2[C@@H]3CC[C@@H]4C[C@H](O)CC[C@]4(C)[C@H]3CC[C@]12C [compound 33, 3α-Hydroxy-5 β -pregnan-20-one]",0.024 µM
